Results from patent US4477444A, “Antracycline glycosides, pharmaceutical compositions and method of use” (priority 1981, dated 1984).

Columns and labels:
Hela cells = assay: Activity on Hela cells cloning efficiency in vitro, treatment for 24 hours; format: cell-based; settings: for cytotoxicity relative to daunorubicin and doxorubicin: Hela cells cloning efficiency in vitro; for % of controls (Hela cells cloning efficiency): 24 hours
[1] = Activity against P388 ascitic leukemia in mice, i.p. treatment on day 1 after tumor inoculation; format: in vivo; settings: mouse, in vivo, ip; for MTD: i.p. day 1, P388 leukemia mice, read-out: maximal tolerated dose
Excerpt: (§1) Activity against P388 ascitic leukemia of XOO-0148 and
(§2) Treatment i.p. on day 1 after tumor inoculation
(§3) ^(a) T/C % = median survival time of treated mice/median survival tim

P388 leukemia = assay: as above; format: in vivo; settings: for antitumor activity (overall conclusion): conclusion from all studies; for potency relative to the corresponding parent compounds / toxicity relative to the corresponding parent compounds: i.p. day 1, P388 leukemia mice
Excerpt: as §1, §2, §3

[2] = Activity against i.v. inoculated Gross leukemia in mice, i.v. treatment on day 1 after tumor inoculation; format: in vivo; settings: mouse, in vivo, iv; i.v. day 1, Gross leukemia mice; read-out: maximal tolerated dose
Method: (§4) Compound XOO-0148 was also tested on the i.v. inoculated Gross leukemia. Mice were treated i.v. on day 1.
(§5) Activity against Gross leukemia of XOO-0148
(§6) Treatment i.v. on day 1 after tumor inoculation
as §3

Gross leukemia = assay: as above; format: in vivo
Method: as §4, §5, §6, §3

[3] = dose 12.5 (dose unit not given)

COc1cccc2c1C(=O)c1c(O)c3c(c(O)c1C2=O)C[C@@](O)(C(=O)CO)C[C@@H]3O[C@H]1C[C@@H](N)C[C@H](C)O1 [XOO-0155, 4'-deoxy-3'-epi-doxorubicin]
cytotoxicity relative to daunorubicin and doxorubicin (Hela cells): less cytotoxic than daunorubicin and doxorubicin | % of controls (Hela cells cloning efficiency) (Hela cells; dose 100 (dose unit not given)): 12,5% | mortality ([1]; 22.5 mg/kg i.p. day 1, read-out: Toxicity Death): 10% | MTD [1]: 22.5 mg/kg | T/C % (median survival time of treated mice/median survival time of controls x100) (P388 leukemia; 15 mg/kg i.p. day 1): 195% | Toxicity Death (P388 leukemia; 15 mg/kg i.p. day 1): 0/10 | T/C % (median survival time of treated mice/median survival time of controls x100) (P388 leukemia; 22.5 mg/kg i.p. day 1): 235% | antitumor effect relative to doxorubicin (P388 leukemia; 22.5 mg/kg i.p. vs doxorubicin at 10 mg/kg): lower than that observed after treatment with doxorubicin | T/C % (median survival time of treated mice/median survival time of controls x100) (P388 leukemia; 33.7 mg/kg i.p. day 1): 260% | Toxicity Death (P388 leukemia; 33.7 mg/kg i.p. day 1): 4/10 | T/C % (median survival time of treated mice/median survival time of controls x100) (P388 leukemia; 50 mg/kg i.p. day 1): 60% | Toxicity Death (P388 leukemia; 50 mg/kg i.p. day 1): 8/10 | antitumor activity (overall conclusion) (P388 leukemia): remarkable antitumor activity | potency relative to the corresponding parent compounds (P388 leukemia): less potent than the corresponding parent compounds | toxicity relative to the corresponding parent compounds (P388 leukemia): less toxic | antitumor effect (P388 leukemia; maximal tolerated dose 22.5 mg/kg i.p.): remarkable antitumor effect

COc1cccc2c1C(=O)c1c(O)c3c(c(O)c1C2=O)C[C@@](O)(C(=O)CO)C[C@@H]3O[C@H]1C[C@H](N)[C@H](O)[C@H](C)O1 [Doxorubicin, doxorubicin, reference compound]
% of controls (Hela cells cloning efficiency) (Hela cells; [3]): 63,93% | % of controls (Hela cells cloning efficiency) (Hela cells; dose 25 (dose unit not given)): 26,22% | MTD [1]: 10 mg/kg | T/C % (median survival time of treated mice/median survival time of controls x100) (P388 leukemia; 4.4 mg/kg i.p. day 1): 245% | Toxicity Death (P388 leukemia; 4.4 mg/kg i.p. day 1): 0/10 | T/C % (median survival time of treated mice/median survival time of controls x100) (P388 leukemia; 6.6 mg/kg i.p. day 1): 255% | Toxicity Death (P388 leukemia; 6.6 mg/kg i.p. day 1): 0/10 | T/C % (median survival time of treated mice/median survival time of controls x100) (P388 leukemia; 10 mg/kg i.p. day 1): 345% | Toxicity Death (P388 leukemia; 10 mg/kg i.p. day 1): 0/10

COc1cccc2c1C(=O)c1c(O)c3c(c(O)c1C2=O)C[C@@](O)(C(C)=O)C[C@@H]3O[C@H]1C[C@@H](N)C[C@H](C)O1 [XOO-0148, 4'-deoxy-3'-epi-daunorubicin]
cytotoxicity relative to daunorubicin and doxorubicin (Hela cells): less cytotoxic than daunorubicin and doxorubicin | % of controls (Hela cells cloning efficiency) (Hela cells; dose 1.5 (dose unit not given)): 89% | % of controls (Hela cells cloning efficiency) (Hela cells; dose 3.1 (dose unit not given)): 100% | % of controls (Hela cells cloning efficiency) (Hela cells; dose 6.2 (dose unit not given)): 98% | % of controls (Hela cells cloning efficiency) (Hela cells; [3]): 111% | % of controls (Hela cells cloning efficiency) (Hela cells; dose 25 (dose unit not given)): 74,95% | % of controls (Hela cells cloning efficiency) (Hela cells; dose 50 (dose unit not given)): 86% | % of controls (Hela cells cloning efficiency) (Hela cells; dose 100 (dose unit not given)): 10% | T/C % (median survival time of treated mice/median survival time of controls x100) (P388 leukemia; 5.1 mg/kg i.p. day 1): 110% | Toxicity Death (P388 leukemia; 5.1 mg/kg i.p. day 1): 0/10 | T/C % (median survival time of treated mice/median survival time of controls x100) (P388 leukemia; 9.2 mg/kg i.p. day 1): 120% | Toxicity Death (P388 leukemia; 9.2 mg/kg i.p. day 1): 0/10 | T/C % (median survival time of treated mice/median survival time of controls x100) (P388 leukemia; 16.6 mg/kg i.p. day 1): 130% | Toxicity Death (P388 leukemia; 16.6 mg/kg i.p. day 1): 0/10 | toxicity at the maximal dose tested (P388 leukemia; 30 mg/kg i.p.): not toxic | T/C % (median survival time of treated mice/median survival time of controls x100) (P388 leukemia; 30 mg/kg i.p. day 1): 145% | Toxicity Death (P388 leukemia; 30 mg/kg i.p. day 1): 0/10 | antitumor activity relative to daunorubicin (P388 leukemia; 30 mg/kg i.p. vs daunorubicin at 2.9 mg/kg): about as active as daunorubicin | antitumor activity (overall conclusion) (P388 leukemia): remarkable antitumor activity | potency relative to the corresponding parent compounds (P388 leukemia): less potent than the corresponding parent compounds | toxicity relative to the corresponding parent compounds (P388 leukemia): less toxic | MTD [2]: 22.5 mg/kg | T/C % (median survival time of treated mice/median survival time of controls x100) (Gross leukemia; 22.5 mg/kg i.v. day 1): 240% | Toxicity Death (Gross leukemia; 22.5 mg/kg i.v. day 1): 0/10 | antitumor activity relative to daunorubicin (Gross leukemia; 22.5 mg/kg i.v. vs daunorubicin at 6 mg/kg): about as active as daunorubicin | T/C % (median survival time of treated mice/median survival time of controls x100) (Gross leukemia; 33.7 mg/kg i.v. day 1): 150% | Toxicity Death (Gross leukemia; 33.7 mg/kg i.v. day 1): 6/10 | T/C % (median survival time of treated mice/median survival time of controls x100) (Gross leukemia; 50 mg/kg i.v. day 1): 120% | Toxicity Death (Gross leukemia; 50 mg/kg i.v. day 1): 10/10 | toxicity relative to daunorubicin (Gross leukemia; i.v. day 1, Gross leukemia mice): less toxic than daunorubicin

COc1cccc2c1C(=O)c1c(O)c3c(c(O)c1C2=O)C[C@@](O)(C(C)=O)C[C@@H]3O[C@H]1C[C@H](N)[C@H](O)[C@H](C)O1 [Daunorubicin, daunorubicin, reference compound]
% of controls (Hela cells cloning efficiency) (Hela cells; dose 6.2 (dose unit not given)): 90,48% | % of controls (Hela cells cloning efficiency) (Hela cells; [3]): 44,19% | MTD [1]: 2.9 mg/kg | T/C % (median survival time of treated mice/median survival time of controls x100) (P388 leukemia; 2.9 mg/kg i.p. day 1): 155% | Toxicity Death (P388 leukemia; 2.9 mg/kg i.p. day 1): 0/10 | T/C % (median survival time of treated mice/median survival time of controls x100) (P388 leukemia; 4.4 mg/kg i.p. day 1): 160% | Toxicity Death (P388 leukemia; 4.4 mg/kg i.p. day 1): 2/10 | T/C % (median survival time of treated mice/median survival time of controls x100) (P388 leukemia; 6.6 mg/kg i.p. day 1): 150% | Toxicity Death (P388 leukemia; 6.6 mg/kg i.p. day 1): 5/10 | MTD [2]: 6 mg/kg | T/C % (median survival time of treated mice/median survival time of controls x100) (Gross leukemia; 4.6 mg/kg i.v. day 1): 180% | Toxicity Death (Gross leukemia; 4.6 mg/kg i.v. day 1): 0/10 | T/C % (median survival time of treated mice/median survival time of controls x100) (Gross leukemia; 6 mg/kg i.v. day 1): 250% | Toxicity Death (Gross leukemia; 6 mg/kg i.v. day 1): 0/10 | T/C % (median survival time of treated mice/median survival time of controls x100) (Gross leukemia; 7.8 mg/kg i.v. day 1): 250% | Toxicity Death (Gross leukemia; 7.8 mg/kg i.v. day 1): 3/10
